This test has as its system MGP. Briefly: MGP gene expression in chondrocyte cells treated with trans form of MK7. Type of test: cell-based. The note with it: Chondrocyte cells treated with 0.01% (w/w) trans form of MK7; mRNA encoding MGP, relative to control conditions. As for the experimental part: Example 2—The role of the trans form of MK7 in expression of MGP was measured as compared to control samples. Chondrocyte cells were treated with 0.01% (w/w) trans form of vitamin MK7 and results were reported as fold change in gene expression relative to control conditions.
MGP expression was elevated by 21% in the presence of trans form of MK7 as compared to the control samples as can be concluded from FIG. 2. […] MGP gene expression found to actively be regulated in the presence of trans form of MK7.

Take `CC(C)=CCC/C(C)=C/CC/C(C)=C/CC/C(C)=C/CC/C(C)=C/CC/C(C)=C/CC/C(C)=C/CC1=C(C)C(=O)c2ccccc2C1=O` [trans form of MK7, all-trans form of Menaquinone-7]: the “MGP expression elevated as compared to the control samples” value turned out to be 21%.

For the origin of these results see US20220249401A1, “DIETARY SUPPLEMENT FORMULATED BASED ON ALL-TRANS FORM OF MENAQUINONE-7” (NUTRIOMICS LIMITED, priority 2021, published 2022).
